Source: US10053445B2, “Photocleavable chemical inducers of dimerization (CID) and methods of use” (Children's Medical Center Corporation, priority 2013, dated 2018)

Legend:
[1] = biological target: FK506 Binding Protein (FKBP) (Homo sapiens, UniProt P62942); conditions: ligand independently; cited from earlier work
mutated FKBP = mutated FKBP (Homo sapiens, UniProt P62942, F37V); conditions: cited from earlier work
COS cells = experiment: peroxisome translocation assay (PEX-RFP-FKBP / DHFR-Kif 1a motor domain); format: cell-based
Experimental: Preliminary tests of Zapalog efficacy in COS cells were also carried out, using a peroxisome translocation assay adapted from Kapitein et al., 2010 (13) and illustrated in FIG. 4. The FKBP domain is coupled to RFP and a peroxisome-binding domain (PEX). The DHFR domain is fused to the motor domain of the kinesin Kif 1a. In the absence of a CID to couple these two proteins, the peroxisomes are stationary and located near the nucleus while the motor (visualized by immunocytochemistry) is diffuse in the cytosol (FIG. 4 DMSO). […] In a live-imaging experiment (FIG. 5), the addition of Zapalog initiated clear movement of the peroxisomes in less than 2 minutes. The dispersal of peroxisomes was reversed by exposure to a 405 nm laser. […] 5) the affinity of Zapalog in vivo is high enough to permit the transport of an organelle by a tethered motor. 6) Zapalog is photo-cleavable in vivo by 405 nm light. […] The experiments described herein seek to characterize Zapalog in sufficient detail to enable its use as a photo-cleavable CID. In particular, experiments were designed to determine the kinetics of Zapalog-induced dimerization and cleavage and whether it could be used to recreate a fully functional split kinesin for studies of motor interactions.

COST cells = experiment: YFP reporter relocalization to outer mitochondrial membrane (YFP-DHFR / Tom20-mCherry-FKBP); format: cell-based
Excerpt: In one set of experiments, Zapalog's efficacy as a dimerizing agent and the efficacy of light-induced cleavage was examined in simple assays of subcellular localization of a YFP reporter adapted from Komatsu et al., (Komatsu et al. Nature Methods 7: 206-8) and illustrated in FIG. 7 (optionally, a GFP or other reporter could have been used). An assay of Zapalog function was developed based on tethering a YFP reporter to the outer mitochondrial membrane of COST cells. In this assay, the YFP reporter was fused to the DHFR domain and, by default, was cytosolic. The FKBP domain was bound to the outer membrane of mitochondria with the N-terminus sequence of Tom20. The FKBP construct was tagged with mCherry. […] Subsequent 405 nm illumination caused immediate (<5 sec) release of YFP back to the cytosol. This redistribution was followed in video microscopy and quantified as a ratio of membrane bound to cytoplasmic fluorescence intensity

[2] = HPLC analysis of Zapalog before and after exposure to 405 nm light; format: physicochemical; conditions: after exposure to 405 nm light
Experimental: Zapalog was synthesized and 10 mg of TLC purified material was determined to be >98% pure by LCMS/HPLC and containing less than 0.1% of the monomeric ligands TMP and SLF.

Chain of FK506 Binding Protein (FKBP) (P62942 whole entry): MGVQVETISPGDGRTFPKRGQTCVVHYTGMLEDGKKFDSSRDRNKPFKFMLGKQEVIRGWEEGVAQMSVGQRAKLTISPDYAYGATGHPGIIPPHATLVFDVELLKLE
Chain of mutated FKBP (P62942 2-108 F37V limits assumed): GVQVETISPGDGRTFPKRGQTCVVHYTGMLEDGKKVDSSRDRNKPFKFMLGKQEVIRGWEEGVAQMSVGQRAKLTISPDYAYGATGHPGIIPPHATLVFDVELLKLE

CCC(C)(C)C(=O)C(=O)N1CCCCC1C(=O)OC(CCc1ccc(OC)c(OC)c1)c1cccc(N)c1 (stereo not drawn) [SLF]
affinity [1]: ~1 nM

CCC(C(=O)N1CCCCC1C(=O)O[C@H](CCc1ccc(OC)c(OC)c1)c1cccc(OCC(=O)O)c1)c1cc(OC)c(OC)c(OC)c1 (stereo partly drawn) [SLF′]
Kd (mutated FKBP): 94 pM

CCC(C)(C)C(=O)C(=O)N1CCCC[C@H]1C(=O)O[C@H](CCc1ccc(OC)c(OC)c1)c1cccc(NC(=O)CCCOc2cc([N+](=O)[O-])c(C(C)OCCOc3c(OC)cc(Cc4cnc(N)nc4N)cc3OC)cc2OC)c1 (stereo partly drawn) [Zapalog]
binding to DHFR and FKBP domains in vivo (COS cells): can bind to the DHFR and FKBP domains in vivo | heterodimerization (COS cells): can cause heterodimerization | toxicity to cells (COS cells): not toxic to cells | translocation of motor domain to peroxisomes and redistribution of peroxisomes (COS cells; 1 uM, in the dark, COS cells): caused the translocation of the motor domain to the peroxisomes and the redistribution of the peroxisomes to the periphery of the cell | effect of exposure of treated cells to light (COS cells; COS cells, light after CID addition): caused the motor to detach from peroxisomes and resume its diffuse distribution | time to clear movement of peroxisomes after addition (COS cells; live imaging): less than 2 minutes | dispersal of peroxisomes after 405 nm laser (COS cells; live imaging, 405 nm laser): reversed | time to relocalization of YFP to the mitochondrial surface (COST cells; 1 μM in the dark): 4 to 5 min | time to release of YFP back to the cytosol (COST cells; subsequent 405 nm illumination): < 5 s | photolytic cleavage by HPLC [2]: complete photolytic cleavage
